Laboratory results from ChEMBL document CHEMBL1129485, “Bis(31/31') ([CYS(31), Trp(32), Nva(34)] NPY-(31-36)): a specific NPY Y-1 receptor antagonist” (J Med Chem, 1996).
Positions of bridges follow the written chain, without caps; N, C: chain ends. Non-standard residues stand in square brackets, D forms with d. Residues, ends and D or L forms follow the SMILES beside them. Chains are numbered I, II in the order given. Nva = CCC[C@H](N)C(=O)O

How the values were obtained:
[1] = target: T1, Neuropeptide Y receptor type 2 (Homo sapiens, UniProt P49146); assay: Compound was tested for the displacement of [125I]-PYY(3-36) (SK-N-BE2) from Neuropeptide Y receptor type 2 in the membranes prepared from cells; assay type: cell membranes
T1 sequence (P49146 whole entry): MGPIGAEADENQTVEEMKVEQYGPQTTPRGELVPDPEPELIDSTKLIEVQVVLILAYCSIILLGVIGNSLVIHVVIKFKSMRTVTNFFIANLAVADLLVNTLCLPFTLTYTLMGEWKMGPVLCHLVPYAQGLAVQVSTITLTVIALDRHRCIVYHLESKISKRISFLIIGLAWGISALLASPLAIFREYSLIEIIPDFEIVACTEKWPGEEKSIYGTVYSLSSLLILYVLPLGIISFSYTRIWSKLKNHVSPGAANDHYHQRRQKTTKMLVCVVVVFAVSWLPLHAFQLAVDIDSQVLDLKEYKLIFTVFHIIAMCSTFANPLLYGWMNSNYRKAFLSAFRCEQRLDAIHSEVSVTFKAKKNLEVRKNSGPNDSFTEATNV

[2] = target: T2, Neuropeptide Y receptor type 1 (Homo sapiens, UniProt P25929); assay: Compound was tested for the displacement of [125I]-PYY (SK-N-MC) from Neuropeptide Y receptor type 1 in the membranes prepared from cells; assay type: cell membranes
T2 sequence (P25929 whole entry): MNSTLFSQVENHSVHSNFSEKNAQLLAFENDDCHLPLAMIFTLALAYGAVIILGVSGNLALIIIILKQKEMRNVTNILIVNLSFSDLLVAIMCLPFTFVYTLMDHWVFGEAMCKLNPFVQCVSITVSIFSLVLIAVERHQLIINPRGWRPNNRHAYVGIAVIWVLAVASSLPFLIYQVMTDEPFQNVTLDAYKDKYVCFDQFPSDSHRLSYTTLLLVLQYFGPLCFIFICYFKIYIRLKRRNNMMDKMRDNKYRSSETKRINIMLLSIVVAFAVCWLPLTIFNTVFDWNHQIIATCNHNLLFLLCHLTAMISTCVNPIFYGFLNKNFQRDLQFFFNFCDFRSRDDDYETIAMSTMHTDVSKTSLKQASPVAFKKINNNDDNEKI

Ki [1] [nM] | Ki [2] [nM] | SMILES
704 | 143 | CCC[C@H](NC(=O)[C@H](CCCN=C(N)N)NC(=O)[C@@H](Cc1c[nH]c2ccccc12)NC(=O)[C@H](CSSC[C@H](NC(=O)[C@H](CC(C)C)NC(=O)[C@H](Cc1c[nH]c2ccccc12)NC(=O)[C@@H](N)Cc1ccc(O)cc1)C(=O)N[C@H](Cc1c[nH]c2ccccc12)C(=O)N[C@@H](CCCN=C(N)N)C(=O)N[C@@H](CCC)C(=O)N[C@@H](CCCN=C(N)N)C(=O)N[C@@H](Cc1ccc(O)cc1)C(N)=O)NC(=O)[C@H](CC(C)C)NC(=O)[C@H](Cc1c[nH]c2ccccc12)NC(=O)[C@@H](N)Cc1ccc(O)cc1)C(=O)N[C@@H](CCCN=C(N)N)C(=O)N[C@@H](Cc1ccc(O)cc1)C(N)=O
621 | 93 | CCC[C@H](NC(=O)[C@H](CCCN=C(N)N)NC(=O)[C@H](Cc1c[nH]c2ccccc12)NC(=O)[C@H](CSSC[C@H](NC(=O)[C@H](CC(C)C)NC(=O)[C@H](Cc1c[nH]c2ccccc12)NC(=O)[C@@H](N)Cc1ccc(O)cc1)C(=O)N[C@@H](Cc1c[nH]c2ccccc12)C(=O)N[C@@H](CCCN=C(N)N)C(=O)N[C@@H](CCC)C(=O)N[C@@H](CCCN=C(N)N)C(=O)N[C@@H](Cc1ccc(O)cc1)C(N)=O)NC(=O)[C@H](CC(C)C)NC(=O)[C@H](Cc1c[nH]c2ccccc12)NC(=O)[C@@H](N)Cc1ccc(O)cc1)C(=O)N[C@@H](CCCN=C(N)N)C(=O)N[C@@H](Cc1ccc(O)cc1)C(N)=O
> 10000 | 46 | CCC[C@H](NC(=O)[C@H](CCCNC(=N)N)NC(=O)[C@H](Cc1c[nH]c2ccccc12)NC(=O)[C@@H](N)CSSC[C@H](N)C(=O)N[C@@H](Cc1c[nH]c2ccccc12)C(=O)N[C@@H](CCCNC(=N)N)C(=O)N[C@@H](CCC)C(=O)N[C@@H](CCCNC(=N)N)C(=O)N[C@@H](Cc1ccc(O)cc1)C(N)=O)C(=O)N[C@@H](CCCNC(=N)N)C(=O)N[C@@H](Cc1ccc(O)cc1)C(N)=O (I: H-CWR[Nva]RY-NH2 / II: H-CWR[Nva]RY-NH2; disulfide I:1-II:1)
3980 | 49 | CCC[C@H](NC(=O)[C@H](CCCN=C(N)N)NC(=O)[C@@H](NC(=O)[C@H](CSSC[C@H](NC(=O)[C@H](CC(C)C)NC(=O)[C@@H](NC(=O)[C@@H](N)Cc1ccc(O)cc1)[C@@H](C)CC)C(=O)N[C@H](C(=O)N[C@@H](CCCN=C(N)N)C(=O)N[C@@H](CCC)C(=O)N[C@@H](CCCN=C(N)N)C(=O)N[C@@H](Cc1ccc(O)cc1)C(N)=O)[C@@H](C)O)NC(=O)[C@H](CC(C)C)NC(=O)[C@@H](NC(=O)[C@@H](N)Cc1ccc(O)cc1)[C@@H](C)CC)[C@@H](C)O)C(=O)N[C@@H](CCCN=C(N)N)C(=O)N[C@@H](Cc1ccc(O)cc1)C(N)=O (I: H-YILCTR[Nva]RY-NH2 / II: H-YILCTR[Nva]RY-NH2; disulfide I:4-II:4)
988 | 95 | CCC[C@H](NC(=O)[C@H](CCCNC(=N)N)NC(=O)[C@H](Cc1c[nH]c2ccccc12)NC(=O)[C@H](CSSC[C@H](NC(=O)[C@H](CC(C)C)NC(=O)[C@@H](NC(=O)[C@@H](N)Cc1ccc(O)cc1)[C@@H](C)CC)C(=O)N[C@@H](Cc1c[nH]c2ccccc12)C(=O)N[C@@H](CCCNC(=N)N)C(=O)N[C@@H](CCC)C(=O)N[C@@H](CCCNC(=N)N)C(=O)N[C@@H](Cc1ccc(O)cc1)C(N)=O)NC(=O)[C@H](CC(C)C)NC(=O)[C@@H](NC(=O)[C@@H](N)Cc1ccc(O)cc1)[C@@H](C)CC)C(=O)N[C@@H](CCCNC(=N)N)C(=O)N[C@@H](Cc1ccc(O)cc1)C(N)=O (I: H-YILCWR[Nva]RY-NH2 / II: H-YILCWR[Nva]RY-NH2; disulfide I:4-II:4)
2080 | 36 | CCC[C@H](NC(=O)[C@H](CCCN=C(N)N)NC(=O)[C@@H](NC(=O)[C@H](CSSC[C@H](NC(=O)[C@H](CC(C)C)NC(=O)[C@H](CC(N)=O)NC(=O)[C@@H](NC(=O)[C@@H](N)Cc1ccc(O)cc1)[C@@H](C)CC)C(=O)N[C@H](C(=O)N[C@@H](CCCN=C(N)N)C(=O)N[C@@H](CCC)C(=O)N[C@@H](CCCN=C(N)N)C(=O)N[C@@H](Cc1ccc(O)cc1)C(N)=O)[C@@H](C)O)NC(=O)[C@H](CC(C)C)NC(=O)[C@H](CC(N)=O)NC(=O)[C@@H](NC(=O)[C@@H](N)Cc1ccc(O)cc1)[C@@H](C)CC)[C@@H](C)O)C(=O)N[C@@H](CCCN=C(N)N)C(=O)N[C@@H](Cc1ccc(O)cc1)C(N)=O (I: H-YINLCTR[Nva]RY-NH2 / II: H-YINLCTR[Nva]RY-NH2; disulfide I:5-II:5)
3410 | 44 | CCC[C@H](NC(=O)[C@H](CCCN=C(N)N)NC(=O)[C@H](Cc1c[nH]c2ccccc12)NC(=O)[C@H](CSSC[C@H](NC(=O)[C@H](CC(C)C)NC(=O)[C@H](CC(N)=O)NC(=O)[C@@H](NC(=O)[C@@H](N)Cc1ccc(O)cc1)[C@@H](C)CC)C(=O)N[C@@H](Cc1c[nH]c2ccccc12)C(=O)N[C@@H](CCCN=C(N)N)C(=O)N[C@@H](CCC)C(=O)N[C@@H](CCCN=C(N)N)C(=O)N[C@@H](Cc1ccc(O)cc1)C(N)=O)NC(=O)[C@H](CC(C)C)NC(=O)[C@H](CC(N)=O)NC(=O)[C@@H](NC(=O)[C@@H](N)Cc1ccc(O)cc1)[C@@H](C)CC)C(=O)N[C@@H](CCCN=C(N)N)C(=O)N[C@@H](Cc1ccc(O)cc1)C(N)=O (I: H-YINLCWR[Nva]RY-NH2 / II: H-YINLCWR[Nva]RY-NH2; disulfide I:5-II:5)
